Measurements taken from patent US6706762B1, “Methods for the use of inhibitors of co-repressors for the treatment of neoplastic diseases” (The Salk Institute for Biological Studies, priority 1997, dated 2004).

Key:
GAL-PLZF-RARα = GAL-PLZF-RARα activation of UAS reporter, transient transfection in CV1 cells; assay type: cell-based; conditions: for reporter activation in combination with ATRA: TSA 150 nM or NaB 5 mM plus ATRA; for reporter activation in combination with ATRA / relief of repression by GAL-PLZF-RARα: 16 hours; for relief of repression by GAL-PLZF-RARα: TSA 150 nM or NaB 5 mM
Experimental: (§1) GAL4-DBD fusions of RARα or PLZF-RARα were transfected into CV1 cells and examination of their RA-activation on UAS reporters. CV1 cells were transfected using DOTAP transfection reagents (Boehringer Mannheim). Luciferase activity of each sample was normalized against internal control β-galactosidase activity (Nagy et al. (1997) Cell 89:373-380). Each transfection was carried out in triplicate and repeated at least three times.

PLZF-RARα = experiment: TK-βRARE×2-Luc reporter, transcriptional inhibition by PLZF-RARα in CV1 cells; assay type: cell-based; conditions: NaB 5 mM, 100 nM ATRA
Experimental: as §1
(§2) It was then sought to determine whether similar effects can be seen on native RA-response elements. As shown previously, exogenous expression of PLZF-RARα or PML-RARα inhibits RA-activation mediated by endogenous RARs on βRARE reporters (FIG. 6(C); de Thé et al. (1991) Cell 66:675-684; Kastner et al. (1992) EMBO J. 11:629-642; Chen et al. (1994) Proc. Natl Acad. Sci. USA 91:1178-1182; Licht et al. (1996) Oncogene 12:323-336; Rousselot et al. (1994) Oncogene 9:545-551).

PML-RARα = experiment: TK-βRARE×2-Luc reporter, transcriptional inhibition by PML-RARα in CV1 cells; assay type: cell-based; conditions: NaB 5 mM, 100 nM ATRA
Experimental: as §1, §2

[1] = tested on: myeloid leukemia (HL-60) cells; experiment: Differentiation of HL-60 cells, CD14 and CD11b expression by flow cytometry; assay type: cell-based, human; conditions: 72 hours
Experimental: If HDAC is a critical component of receptor function then addition of a deacetylase inhibitor, such as Trichostatin A (TSA) (Taunton et al., Science 272:408-411 (1996)) would be expected to relieve transcriptional repression, resulting in a promoter that is likely to be more sensitive to the addition of hormone. This prediction was tested by studying the effect of TSA on the differentiation of myeloid leukemia (HL-60) cells (Collins, Blood 70:1233-1244 (1987)) following a high dose ( 100 nM) 9-cis RA treatment. A hallmark of this process is the appearance of cell surface differentiation markers CD14 and CD11b (Brackman et al., Leukemia Research 19:57-64 (1995)). HL-60 cells cultured in RPMI 10% FBS were plated at a density of 2×10^5/ml in RPMI 2% FBS treated with 9-cis RA (Sigma) and/or Trichostatin A (TSA) (Waco Pure Chemical Industries) for 72 hours and then incubated with R-phycoerythrin (RPE) conjugated anti-human C3bi receptor (CD11b) (DAKO) or RPE-conjugated monoclonal mouse anti-human CD 14 (DAKO) antibodies for 60 minutes on ice. Cells were washed twice with PBS 0.5% BSA and analyzed on a FACScan flow cytometer (Becton Dickinson). The expression of cell surface antigens (CD11b and CD14) were monitored.

NB4 cells [2] = experiment: Nitroblue Tetrazolium (NBT) reduction differentiation assay in NB4 cells; assay type: cell-based, human; conditions: three days
Experimental: (§3) This prediction was tested utilizing the NB4 cell line established from a patient with t(15;17) APL. NB4, NB4-R4 (Shao et al. (1997) Blood 89:4282-4289), HL-60 and HL-60R (Robertson et al. (1992) Blood 80:1885-1889) cells were cultured in RPMI with 10% FBS. […] Differentiation assays with RA and/or TSA were carried out as previously described (Nagy et al. (1997) Cell 89:373-380). NBT assay has been described (Nagy et al. (1995) Mole. Cell. Biol. 15:3540-3551).

NB4 cells [3] = experiment: CD18 expression in NB4 cells by flow cytometry; assay type: cell-based, human; conditions: TSA plus 9-cis RA, three days
Experimental: as §3
For flow cytometry analysis of CD18 expression, the cells were incubated with a FITC-conjugated anti-CD18 antibody (DAKO) in a dilution of 1:500 in PBS (0.5% BSA) followed by extensive washing before analyzing on a FACSCAN flow cytometer (Becton Dickinson). Although histone deacetylase inhibitors are known to have pleiotropic effects on global gene expression, the fact that CD18 is a direct retinoid target gene (Agura et al. (1992) Blood 79:602-609) supports the notion that histone deacetylases are integral components of PML-RARα mediated differentiation. […] This would explain why the inhibition of SMRT-mediated repression by TSA increases the retinoid sensitivity of NB4 cells.

NB4-R4 cells = experiment: NBT reduction differentiation assay in retinoid-resistant NB4-R4 cells; assay type: cell-based, human; conditions: three days
Experimental: as §3

RARα / GST-SMRT-IDII = molecular target: T1, RARα / GST-SMRT-IDII (Homo sapiens, UniProt P10276); experiment: GST-SMRT-IDII affinity matrix, binding of radiolabelled RARα; conditions: presence of 5 μM ATRA
T1 construct: made in house; host or cells: 35S-labelled receptor (in vitro translation); GST-SMRT from E. coli DH5a or BL-21
T1 sequence (P10276 1-462): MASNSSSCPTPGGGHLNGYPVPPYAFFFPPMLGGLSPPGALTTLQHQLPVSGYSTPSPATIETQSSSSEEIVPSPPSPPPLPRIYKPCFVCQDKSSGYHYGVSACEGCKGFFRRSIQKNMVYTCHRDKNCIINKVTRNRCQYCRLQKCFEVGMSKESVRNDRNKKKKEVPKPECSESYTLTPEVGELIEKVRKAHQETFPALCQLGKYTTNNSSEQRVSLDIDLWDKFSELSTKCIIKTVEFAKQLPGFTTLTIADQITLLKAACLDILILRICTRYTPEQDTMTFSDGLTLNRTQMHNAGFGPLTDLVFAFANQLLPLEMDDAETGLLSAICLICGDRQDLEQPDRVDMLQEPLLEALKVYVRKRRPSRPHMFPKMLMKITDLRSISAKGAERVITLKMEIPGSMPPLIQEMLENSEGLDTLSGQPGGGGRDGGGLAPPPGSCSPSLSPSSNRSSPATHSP
Experimental: (§4) Recombinant proteins were obtained as follows and in vitro protein interaction assays were carried out as follows. GST-PLZF and GST-SMRT fusion proteins were produced from E. Coli DH5a or BL-21 cells and purified by glutathione-Sepharose 4B affinity chromatography. Bound proteins were eluted with 15 mM glutathione. Purified proteins were then reloaded on glutathione-Sepharose 4B beads and used as affinity matrices. Protein interaction assays were performed in G buffer (20 mM Tris, 7.9, 150 mM KCl, 1 mM EDTA, 4 mM MgCl2, 0.26 NP-40, 10% Glycerol) at 4° C. for 60 min with gentle rocking. The beads were washed five times with G buffer and bounded proteins were eluted in SDS sample buffer, separated by SDS-PAGE and visualized by autoradiography.

[4] = tested on: PLZF-RARα / GST-SMRT-IDII; experiment: GST-SMRT-IDII affinity matrix, binding of radiolabelled PLZF-RARα; conditions: presence of 5 μM ATRA
Experimental: as §4

[5] = tested on: PLZF-RARα / GST-SMRT-PID2; experiment: GST-SMRT-PID2 affinity matrix, binding of radiolabelled PLZF-RARα; conditions: presence or absence of 5 μM ATRA
Experimental: as §4

[6] = molecular target: T2, SMRT associated with RARα (Homo sapiens, UniProt P10276); experiment: Immunoprecipitation of HA-RARα from CV1 cell extracts, immunoblot for SMRT; assay type: cell-based; conditions: ATRA (5 μM), 4° C. overnight
T2 construct: HA-RARα (amino acids 61-462); expressed in transfected cells; host or cells: CV1 cells
T2 sequence (P10276 61-462): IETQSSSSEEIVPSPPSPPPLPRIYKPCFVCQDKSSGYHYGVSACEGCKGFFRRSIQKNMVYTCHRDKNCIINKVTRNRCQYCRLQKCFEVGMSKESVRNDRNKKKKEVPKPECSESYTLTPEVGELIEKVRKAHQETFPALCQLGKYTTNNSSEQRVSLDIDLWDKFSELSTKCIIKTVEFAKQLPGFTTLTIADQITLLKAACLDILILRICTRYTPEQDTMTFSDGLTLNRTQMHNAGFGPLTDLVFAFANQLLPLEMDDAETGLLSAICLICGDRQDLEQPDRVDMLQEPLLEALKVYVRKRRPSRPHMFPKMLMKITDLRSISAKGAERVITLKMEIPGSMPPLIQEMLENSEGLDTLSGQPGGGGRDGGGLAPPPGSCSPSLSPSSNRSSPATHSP
Experimental: (§5) For in vitro immunoprecipitation, in vitro translated proteins were incubated together with 10 μg/μl anti-HA antibody in G buffer at 4° C. for 60 min. Immunocomplexes were isolated by incubation with protein A-agarose, washed four times with G buffer, analyzed by SDS-PAGE and visualized by autoradiography. For in vivo immunoprecipitation, 2×10^7 CV1 cells were transfected with 10 μg of appropriate plasmids and harvested in ice-cold PBS, 24 hours after transfection. Cells were lysed by hypotonic shock and the nuclear pellet was resuspended in IP buffer (PBS, 10 mM NaF, 25 mM β-glycerolphosphate, 0.1% NP-40, 0.5 mM PMSF plus protease inhibitors) and disrupted by mild sonication.
(§6) Immunocomplexes were resolved by SDS-PAGE and analyzed by immunoblotting.

[7] = tested on: SMRT associated with PLZF-RARα; experiment: Immunoprecipitation of HA-PLZF-RARα from CV1 cell extracts, immunoblot for SMRT; assay type: cell-based; conditions: ATRA (5 μM), 4° C. overnight
Experimental: as §5, §6

RARα / SMRT = molecular target: T3, RARα / SMRT (Homo sapiens, UniProt P10276); experiment: GST-SMRT (amino acids 1,073-1,330) affinity matrix, radiolabelled RARα; assay type: binding; conditions: ATRA
T3 construct: made in house; host or cells: in vitro translated receptor; GST-SMRT from E. coli
T3 sequence (P10276 1-462): T1 sequence (P10276 1-462)

PML-RARα/SMRT complex = experiment: GST-SMRT (amino acids 1,073-1,330) affinity matrix, radiolabelled PML-RARα; assay type: binding; conditions: ATRA
[8] = tested on: SMRT / DNA-bound PML-RARα; experiment: Gel mobility shift assay, GST-SMRT-IDII with PML-RARα homodimers on DR5 elements; assay type: binding; conditions: compared with RARα/RXRα heterodimers
Description: The protein-DNA complexes were then resolved on a 4.5% native polyacrylamide gel and visualized by autoradiography.

[9] = tested on: PML-RARα expressing HL-60 cells; conditions: Rousselot et al. (1994); cited from earlier work

CCCC(=O)[O-].[Na+] [NaB, sodium butyrate]
reporter activation in combination with ATRA (GAL-PLZF-RARα): synergized with ATRA
relief of repression by GAL-PLZF-RARα (GAL-PLZF-RARα): relieved repression
RA activation of βRARE reporter in the presence of PLZF-RARα (PLZF-RARα): restore nearly full RA activation
relief of transcriptional inhibition by PML-RARα on βRARE reporter (PML-RARα): partially, relieves transcriptional inhibition

CC1=C(/C=C/C(C)=C\C=C\C(C)=C\C(=O)O)C(C)(C)CCC1 [9-cis RA, 9-cis retinoic acid]
CD14 expression ([1]; suboptimal dose (10 nM) of 9-cis RA alone): modest stimulation

CC(/C=C/C(=O)NO)=C\[C@@H](C)C(=O)c1ccc(N(C)C)cc1 [TSA, Trichostatin A]
CD14 expression ([1]; 100 nM TSA alone): minimal effect
CD14 expression ([1]; TSA plus 10 nM 9-cis RA, compared with 100 nM 9-cis RA): dramatic enhancement
CD14 expression ([1]; TSA plus high dose (100 nM) 9-cis RA): enhanced
CD11b expression ([1]; combination of TSA and 9-cis RA): cooperative at both high and low doses
CD11b expression ([1]; low doses of TSA alone): partially activated gene expression
reporter activation in combination with ATRA (GAL-PLZF-RARα): synergized with ATRA
relief of repression by GAL-PLZF-RARα (GAL-PLZF-RARα): relieved repression
differentiation effect of ATRA (NBT-positive cells) (NB4 cells [2]; TSA 50 nM plus ATRA at all concentrations tested): dramatically enhanced
differentiation (NBT-positive cells) (NB4 cells [2]; TSA (50 nM) alone): no effect
RA-induced expression of early differentiation marker CD18 (NB4 cells [3]): strong stimulatory effect
percentage of NBT-positive cells (NB4-R4 cells; ATRA and 200 nM TSA): 18%
hormone-induced differentiation (NBT-positive cells) (NB4-R4 cells; TSA plus ATRA): partially restored hormone-induced differentiation

CC1=C(/C=C/C(C)=C/C=C/C(C)=C/C(=O)O)C(C)(C)CCC1 [ATRA, all-trans retinoic acid]
response of GAL-PLZF-RARα to ATRA (reporter activation) (GAL-PLZF-RARα; ATRA alone, 36 hours, compared to GAL-RARα): poorly responded
percentage of NBT-positive cells (NB4 cells [2]; 1 mM ATRA alone, parental NB4 cells): 23%
binding of RARα to GST-SMRT-IDII (RARα / GST-SMRT-IDII): significantly reduced
binding of PLZF-RARα to GST-SMRT-IDII [4]: significantly reduced
binding of PLZF-RARα to GST-SMRT-PID2 [5]: ligand-insensitive
amount of SMRT which associates with RARα [6]: greatly reduced
amount of SMRT associated with PLZF-RARα [7]: largely unaffected
dissociation of SMRT from RARα (RARα / SMRT): effectively dissociated
effect on PML-RARα/SMRT complex (PML-RARα/SMRT complex): only weakly affected
ATRA concentration required to dissociate SMRT from DNA-bound PML-RARα versus RAR [8]: substantially higher concentrations
ATRA concentration up to which cells are resistant [9]: up to 10^−7 M
